# Experimental data taken from patent US10640495B2, “Heterocycle derivatives having TrkA inhibitory activity” (Shionogi & Co., Ltd., priority 2015, dated 2020).
# Molecular target: human TrkA (Homo sapiens (Human), UniProt P04629)
# Assay: Human TrkA inhibition assay (Test Example 2)
# Format: biochemical
# Settings: Table 154, human TrkA inhibition; read-out: IC50
# How it was run: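 Mobility-shift readout of phosphorylated versus unphosphorylated fluorescent peptide gave conversion ratio, normalized to DMSO and no-enzyme wells; IC50 by logistic fit of 10- or 15-point 3-fold dilutions. Conditions: 1 nmol/L enzyme, 15 min compound preincubation, then 500 μmol/L ATP plus 1.5 μmol/L peptide, 120 min, 37 °C.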
# Chain of human TrkA (P04629 440-796): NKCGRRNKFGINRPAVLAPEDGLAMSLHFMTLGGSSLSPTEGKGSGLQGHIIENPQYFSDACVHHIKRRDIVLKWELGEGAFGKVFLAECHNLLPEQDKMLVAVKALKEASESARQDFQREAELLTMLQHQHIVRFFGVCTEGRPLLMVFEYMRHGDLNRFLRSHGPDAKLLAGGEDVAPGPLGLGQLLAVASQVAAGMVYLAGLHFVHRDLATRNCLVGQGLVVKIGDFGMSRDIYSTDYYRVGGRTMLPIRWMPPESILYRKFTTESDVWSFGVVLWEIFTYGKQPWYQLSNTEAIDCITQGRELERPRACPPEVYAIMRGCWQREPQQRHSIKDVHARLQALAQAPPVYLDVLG
row,IC50 [nM],SMILES
1,< 100,COCCN1C[C@@H](NC(=O)Nc2c(C)c(-c3cnc(OC)c(C(=O)NC4CCOCC4)c3)nn2-c2ccc(F)cc2)[C@H](c2ccc(F)c(F)c2)O1 (racemic) [Compound I-184]
2,< 100,COCC[C@@H]1C[C@@H](NC(=O)Nc2c(C)c(-c3ccc(N=S(C)(C)=O)nc3)nn2-c2ccccc2)[C@H](c2ccc(F)c(F)c2)O1 (racemic) [Compound I-185]
3,< 100,COCCN1C[C@@H](NC(=O)Nc2c(C)c(-c3cnc(OC)nc3)nn2-c2ccccc2)[C@H](c2cc(F)nc(F)c2)O1 (racemic) [Compound I-187]
4,< 100,COCCN1C[C@@H](NC(=O)Nc2c(C)c(-c3cnc4cccnc4c3)nn2-c2ccccc2)[C@H](c2ccnc(F)c2)O1 (racemic) [Compound I-188]
5,< 100,COCCN1C[C@@H](NC(=O)Nc2c(C)c(-c3ccnc(C(=O)OC)c3)nn2-c2ccccc2)[C@H](c2ccc(F)c(F)c2)O1 (racemic) [Compound I-189]
6,< 100,COCCN1C[C@@H](NC(=O)Nc2c(C)c(-c3ccnc(C(=O)OC)c3)nn2-c2ccccc2)[C@H](c2ccnc(F)c2)O1 (racemic) [Compound I-194]
7,< 100,COCCN1C[C@@H](NC(=O)Nc2c(C)c(-c3ccnc(C(=O)NO)c3)nn2-c2ccccc2)[C@H](c2ccc(F)c(F)c2)O1 (racemic) [Compound I-195]
8,< 100,CCOc1ncc(-c2nn(-c3ccccc3)c(NC(=O)N[C@@H]3CN(CCOC)O[C@H]3c3ccnc(F)c3)c2C)cn1 (racemic) [Compound I-196]
9,< 100,COCCN1C[C@@H](NC(=O)Nc2c(C)c(-c3ccnc(C(=O)NOC)c3)nn2-c2ccccc2)[C@H](c2ccc(F)c(F)c2)O1 (racemic) [Compound I-198]
10,< 100,COCCN1C[C@@H](NC(=O)Nc2c(C)c(-c3ccc(C(=O)OC)nc3)nn2-c2ccccc2)[C@H](c2ccc(F)c(F)c2)O1 (racemic) [Compound I-199]
11,< 100,CCN1C[C@@H](NC(=O)Nc2c(C)c(-c3cnc4c(cnn4C)c3)nn2-c2ccccc2)[C@H](c2ccc(F)c(F)c2)O1 (racemic) [Compound I-200]
12,< 100,Cc1c(-c2cnc3c(cnn3C)c2)nn(-c2ccccc2)c1NC(=O)N[C@@H]1CN(CC2CC2)O[C@H]1c1ccc(F)c(F)c1 (racemic) [Compound I-201]
13,100 to 1000,Cc1c(-c2cnc3c(cnn3C)c2)nn(-c2ccccc2)c1NC(=O)N[C@@H]1CN(CC2COC2)O[C@H]1c1ccc(F)c(F)c1 (racemic) [Compound I-202]
14,100 to 1000,Cc1c(-c2cnc3c(cnn3C)c2)nn(-c2ccccc2)c1NC(=O)N[C@@H]1CN(Cc2ccn[nH]2)O[C@H]1c1ccc(F)c(F)c1 (racemic) [Compound I-203]
15,100 to 1000,Cc1c(-c2cnc3c(cnn3C)c2)nn(-c2ccccc2)c1NC(=O)N[C@@H]1CN(Cc2cn[nH]c2)O[C@H]1c1ccc(F)c(F)c1 (racemic) [Compound I-204]
16,100 to 1000,Cc1c(-c2cnc3c(cnn3C)c2)nn(-c2ccccc2)c1NC(=O)N[C@@H]1CN(Cc2cnn(C)c2)O[C@H]1c1ccc(F)c(F)c1 (racemic) [Compound I-205]
17,100 to 1000,Cc1c(-c2cnc3c(cnn3C)c2)nn(-c2ccccc2)c1NC(=O)N[C@@H]1CN(CC(C)(C)CN(C)C)O[C@H]1c1ccc(F)c(F)c1 (racemic) [Compound I-206]
18,< 100,Cc1c(-c2cnc3c(cnn3C)c2)nn(-c2ccccc2)c1NC(=O)N[C@@H]1CN(C)O[C@H]1c1ccc(F)c(F)c1 (racemic) [Compound I-207]
19,< 100,COCCN1C[C@@H](NC(=O)Nc2c(C)c(-c3cnc4c(c3)[nH]c(=O)n4C)nn2-c2ccccc2)[C@H](c2ccnc(F)c2)O1 (racemic) [Compound I-208]
20,< 100,COCCN1C[C@@H](NC(=O)Nc2c(C)c(-c3ccnc(C(=O)O)c3)nn2-c2ccccc2)[C@H](c2ccnc(F)c2)O1 (racemic) [Compound I-212]
21,< 100,COCCN1C[C@@H](NC(=O)Nc2c(C)c(-c3ccc(C(=O)O)nc3)nn2-c2ccccc2)[C@H](c2ccc(F)c(F)c2)O1 (racemic) [Compound I-214]
22,< 100,COCC[C@@H]1C[C@@H](NC(=O)Nc2c(C)c(-c3cnc4c(c3)c(=O)n(C)n4C)nn2-c2ccccc2)[C@H](c2ccc(F)c(F)c2)O1 (racemic) [Compound I-215]

row,IC50 [nM],SMILES
1,< 100,COCCN1C[C@@H](NC(=O)Nc2c(C)c(-c3cnc4c(c3)nc(C(N)=O)n4C)nn2-c2ccccc2)[C@H](c2ccnc(F)c2)O1 (racemic) [Compound I-219]
2,< 100,COCCN1C[C@@H](NC(=O)Nc2c(C)c(-c3cnc4c(c3)nc(C#N)n4C)nn2-c2ccccc2)[C@H](c2ccnc(F)c2)O1 (racemic) [Compound I-220]
3,< 100,COCCN1C[C@@H](NC(=O)Nc2c(C)c(-c3cnc4c(cnn4C)c3)nn2-c2ccc(F)cc2)[C@H](c2ccnc(F)c2)O1 (racemic) [Compound I-223]
4,< 100,CNC(=O)c1nc2cc(-c3nn(-c4ccccc4)c(NC(=O)N[C@@H]4CN(CCOC)O[C@H]4c4ccnc(F)c4)c3C)cnc2n1C (racemic) [Compound I-224]
5,< 100,COCCN1C[C@@H](NC(=O)Nc2c(C)c(-c3cnc4c(c3)nc(C(=O)NCCO)n4C)nn2-c2ccccc2)[C@H](c2ccnc(F)c2)O1 (racemic) [Compound I-225]
6,< 100,COCCN1C[C@@H](NC(=O)Nc2c(C)c(-c3cnc4c(c3)nc(C(F)(F)F)n4C)nn2-c2ccccc2)[C@H](c2ccnc(F)c2)O1 (racemic) [Compound I-226]
7,< 100,COCCN1C[C@@H](NC(=O)Nc2c(C)c(-c3cnc4c(cnn4CC(F)(F)F)c3)nn2-c2ccccc2)[C@H](c2ccnc(F)c2)O1 (racemic) [Compound I-228]
8,< 100,COCCN1C[C@@H](NC(=O)Nc2c(C)c(-c3ccnc(C(=O)NO)c3)nn2-c2ccccc2)[C@H](c2ccnc(F)c2)O1 (racemic) [Compound I-230]
9,< 100,COCCN1C[C@@H](NC(=O)Nc2c(C)c(-c3ccc(C(=O)NOC)nc3)nn2-c2ccccc2)[C@H](c2ccc(F)c(F)c2)O1 (racemic) [Compound I-234]
10,< 100,COCCN1C[C@@H](NC(=O)Nc2c(C)c(-c3cnc(OC)c(C(N)=O)c3)nn2-c2ccc(F)cc2)[C@H](c2ccnc(F)c2)O1 (racemic) [Compound I-238]
11,< 100,COCCN1C[C@@H](NC(=O)Nc2c(C)c(-c3cnc4c(c3)ncn4CC(F)(F)F)nn2-c2ccccc2)[C@H](c2ccnc(F)c2)O1 (racemic) [Compound I-240]
12,< 100,COCC[C@@H]1C[C@@H](NC(=O)Nc2c(C)c(-c3cnc(N4CC(O)C4)nc3)nn2-c2ccccc2)[C@H](c2ccc(F)c(F)c2)O1 (racemic) [Compound I-242]
13,< 100,COCCN1C[C@@H](NC(=O)Nc2c(C)c(-c3cnc4nn(CC(F)(F)F)cc4c3)nn2-c2ccccc2)[C@H](c2ccnc(F)c2)O1 (racemic) [Compound I-243]
14,< 100,COCCN1C[C@@H](NC(=O)Nc2c(C)c(-c3cnc4c(ccc(=O)n4C)c3)nn2-c2ccccc2)[C@H](c2ccnc(F)c2)O1 (racemic) [Compound I-246]
15,< 100,COCCN1C[C@@H](NC(=O)Nc2c(C)c(-c3cnc(OC)nc3)nn2-c2ccccc2)[C@H](c2ccc(F)cc2)O1 (racemic) [Compound I-247]
16,< 100,COCCN1C[C@@H](NC(=O)Nc2c(C)c(-c3cnc(Cl)nc3)nn2-c2ccccc2)[C@H](c2ccnc(F)c2)O1 (racemic) [Compound I-249]
17,< 100,COCCN1C[C@@H](NC(=O)Nc2c(C)c(-c3cnc(SC)nc3)nn2-c2ccccc2)[C@H](c2ccnc(F)c2)O1 (racemic) [Compound I-250]
18,< 100,COCCN1C[C@@H](NC(=O)Nc2c(C)c(-c3cnc(C(N)=O)c(F)c3)nn2-c2ccccc2)[C@H](c2ccnc(F)c2)O1 (racemic) [Compound I-255]
19,< 100,CNC(=O)c1ncc(-c2nn(-c3ccccc3)c(NC(=O)N[C@@H]3CN(CCOC)O[C@H]3c3ccnc(F)c3)c2C)cc1F (racemic) [Compound I-256]
20,< 100,COCCN1C[C@@H](NC(=O)Nc2c(C)c(-c3cnc(C(=O)NC4CC4)c(F)c3)nn2-c2ccccc2)[C@H](c2ccnc(F)c2)O1 (racemic) [Compound I-257]
21,< 100,COCCN1C[C@@H](NC(=O)Nc2c(C)c(-c3cnc4c(c3)COC4=O)nn2-c2ccccc2)[C@H](c2ccnc(F)c2)O1 (racemic) [Compound I-259]
22,< 100,COCCN1C[C@@H](NC(=O)Nc2c(C)c(-c3cnc(OC)c(C(=O)NOC)c3)nn2-c2ccccc2)[C@H](c2ccnc(F)c2)O1 (racemic) [Compound I-260]

# Same assay, conditions: human TrkA 1 nmol/L, ATP 500 μmol/L, 120 min at 37° C.; read-out: IC50 values (TrkA phosphorylation inhibition)
row,IC50 [nM],SMILES
1,2.1,COCCN1C[C@@H](NC(=O)Nc2c(C)c(-c3ccnc(C(=O)O)c3)nn2-c2ccccc2)[C@H](c2ccc(F)c(F)c2)O1 (racemic) [Compound I-190]
2,4,CNC(=O)c1cc(-c2nn(-c3ccccc3)c(NC(=O)N[C@@H]3CN(C)O[C@H]3c3ccc(F)c(F)c3)c2C)cn(C)c1=O (racemic) [Compound I-193]
3,4.6,COCCN1C[C@@H](NC(=O)Nc2c(C)c(-c3cnn(C)c3)nn2-c2ccccc2)[C@H](c2cc(F)nc(F)c2)O1 (racemic) [Compound I-217]
4,4.2,COCCN1C[C@@H](NC(=O)Nc2c(C)c(-c3ccnc(C(=O)NOC)c3)nn2-c2ccccc2)[C@H](c2ccnc(F)c2)O1 (racemic) [Compound I-232]
5,3.8,COCCN1C[C@@H](NC(=O)Nc2c(C)c(-c3cnc(OC)c(C(=O)NC4CCOCC4)c3)nn2-c2ccc(F)cc2)[C@H](c2ccnc(F)c2)O1 (racemic) [Compound I-239]
6,3.2,COCCN1C[C@@H](NC(=O)Nc2c(C)c(-c3cnc4ncn(CC(F)(F)F)c4c3)nn2-c2ccccc2)[C@H](c2ccnc(F)c2)O1 (racemic) [Compound I-241]
7,17,COCCN1C[C@@H](NC(=O)Nc2c(C)c(N3Cc4cnn(C)c4C3)nn2-c2ccccc2)[C@H](c2ccnc(F)c2)O1 (racemic) [Compound I-244]
